According to patent US20210254056A1, “IDENTIFICATION AND TARGETED MODULATION OF GENE SIGNALING NETWORKS” (CAMP4 THERAPEUTICS CORPORATION, priority 2017, published 2021):
Entries after “also recorded” stand apart in the source; their conditions may differ.

Legend:
[1] = tested on: COL1A1 gene; assay: RNA-seq gene expression after compound treatment, COL1A1; format: cell-based, human; conditions: FIG. 11B; gene implicated in liver fibrosis
Source text: FIG. 11B are ChIP-seq results for an insulated neighborhood and RNA-seq results showing modulation of the COL1A1 gene implicated in liver fibrosis by BIO inhibitor (MT-209), a Wnt pathway agonist.
(§1) In certain embodiments, hepatocytes are used to map a healthy cell population. The liver is a source of many known genetic disease and provides homogeneous primary tissue with high availability. Additionally, most toxicology is done in the liver, which provides drug toxicity insights. In some embodiments, different stimuli, such as those described herein, are contacted with a cell to induce various GSC responses in the hepatocytes. For example, small molecules may be administered to identify liver disease genes whose expression is modulated by the small molecules. These responses provide an understanding of GSCs in liver cells: genomic positions, protein composition, and genome architecture. Alternatively, blood or muscle tissue may be mapped as a healthy population, as a disease model, or as primary disease cells. About 20 million cells are generally needed for accurate ChIP (chromatin immunoprecipitation) analysis. Therefore, in some embodiments, erythroid cells may be used to develop a conditionally immortalized cell system to produce a sufficient biomass for ChIP analysis of a cell with a disease phenotype.

[2] = tested on: hepatocytes; conditions: {}
[3] = tested on: SLC37A4 gene; assay: RNA-seq gene expression after compound treatment, insulated neighborhood containing SLC37A4; format: cell-based, human; conditions: FIG. 8; gene implicated in glycogen storage disease 1b
[4] = tested on: PCSK9 gene; assay: RNA-seq gene expression after compound treatment, PCSK9; format: cell-based, human; conditions: FIG. 11C and FIG. 13; gene implicated in hypercholesterolemia
Source text: as §1

[5] = tested on: primary human hepatocytes; assay: RNA-seq of primary human hepatocytes treated with 39 small molecules (pilot and validation)
[6] = tested on: FKBP5; assay: RNA-seq gene expression after compound treatment, insulated neighborhood including FKBP5; format: cell-based, human; conditions: FIG. 11A; gene implicated in immunosuppression
Source text: as §1

[7] = tested on: normal cord blood erythroblast cells; assay: qRT-PCR after constitutive (pLKO) shRNA knockdown in normal CD34+ cells; format: cell-based, human; conditions: for RQ, ALAS2: relative quantification of ALAS2 expression vs control sh_NT; for RQ, BCLXL: relative quantification of BCLXL expression vs control sh_NT; for RQ, MYC: relative quantification of MYC expression vs control sh_NT; for RQ, P53: relative quantification of P53 expression vs control shNT; for RQ, RPL11: relative quantification of RPL11 expression vs control shNT; for RQ, p21: relative quantification of p21 expression vs control sh_NT; for RQ, p53: relative quantification of p53 expression vs control sh_NT; for increase in expression of p21: pLKO constitutive knockdown, compared to the level observed for the p53 knockdowns, qRT-PCR
Experimental: Conditionally immortalized cord blood CD34+ cells were transduced with the shRNA lentiviruses using the retronectin-transduction protocol (Clontech). Puromycin selection was performed 24-48 hours post-transduction. Cells were counted to monitor cell viability. After 12 days, which allowed for a large biomass, knockdown efficiency was analyzed. qRT-PCR was used to identify changes in mRNA, and Western blot was used to determine levels of protein depletion.
(§2) For RNA extraction, 1×10^6 cells were harvested in 500 μL of TRIZOL reagent (Thermo Scientific), and incubated for 5 minutes at room temperature. Then, 100 μL of chloroform was added to the cells, and the mixture was vortexed and then centrifuged at 12,000× gravity for 15 minutes. The aqueous phase was transferred to fresh tubes and one volume of 70% ethanol was added. The TRIZOL Plus RNA purification Kit (Thermo Scientific) was used for the remaining extraction protocol according to the manufacturer's instructions. For the conversion of RNA to cDNA the High Capacity cDNA RT kit (Thermo Scientific) was used according to the manufacturer's instructions. The cDNA was analyzed with qRT-PCR to determine the fold change of knockdown cells using Taqman Fast PCR mix and Applied Biosystems probes (Thermo Scientific).
shRNAs targeting RPS19, p53, or RPL11 were delivered to normal cord blood erythroblast cells using either the pLKO (constitutive) and pTRIPZ (inducible) plasmids described in Example 1. The mRNA expression of the p53 pathway proteins; progenitor factor GATA2; and differentiation factors HBB and GATA1 were measured by qRT-PCR. Cells not transduced with a shRNA as well as cells transduced with a non-targeting shRNA served as controls.
HBB is associated with differentiation of CD34^+ cells, and p21 is associated with the p53 pathway. […]
To determine the effect of p53 knockdown on expression of other genes, cells were also transduced with pLKO containing p53_sh4 or p53_sh5. To determine the effect of RPS19 knockdown on expression of other genes, cells were transduced with pLKO containing RPS19_sh1, RPS19_sh2, RPS19_sh3, RPS19_sh4, RPS19_sh5, and sh_NT as a control. The relative quantifications of expression of differentiation associated genes ALAS2 and HBB, immortalization factors BCLXL and MYC, and targets of interest p53 and RPS19 are shown in Table 79.

[8] = tested on: CB-CI-IRES-CD34+ cell line; assay: qRT-PCR and knockdown efficiency of shRNAs in conditionally immortalized cord blood CD34+ cells; format: cell-based, human; conditions: qRT-PCR; CB-CI-IRES-CD34+ cells transduced with pTRIPZ shRNA; B-ACTIN control; relative to pTRIPZ NT
Experimental: as §2
qRT-PCR was used to analyze expression of p53 pathway-associated genes p21, RPS19, and RPL11; differentiation marker HBB; and internal control B-ACTIN in the cord blood conditionally immortalized CD34+ (CB-CI-IRES-CD34+) cell line transduced with the pTRIPZ plasmid containing NT (Model 9), RPL11_sh1 (Model 4) and RPL11_sh2 (Model 5) for a RPL11 knockdown, and RPS19_sh1 (Model 6) and RPS19_sh2 (Model 7) for a RPS19 knockdown.
qRT-PCR was used to determine the levels of expression of ALAS2, GAPDH, GATA1, GATA2, HBB, and p53 in differentiated CB-CI-IRES cells using GAPDH as an internal control as shown in Table 86.
Gene expression was compared for CB-CI-IRES cells during expansion and differentiation. […] GAPDH was used as an internal control.
The efficiency of different shRNAs were tested in a conditionally immortalized cord blood erythroblast cell system to mimic DBA. The pTRIPZ was used to transduce these cells with sh1 (dox inducible shRPS19) or sh2 (dox inducible shRPS19), and pLKO was used to transduce a group of cells with sh5 (shRPS19). qRT-PCR was used to determine the level of gene expression in RPS19 mRNA knockdown in each group of cells. The percent of knockdown is shown in Table 90 after 1 week (T1), 2 weeks (T2), and 3 weeks (T3) for each shRNA.

[9] = tested on: TF1 RPS19 KD cells; assay: Dose titration of compounds into RPS19 KD TF1 cells (p53 by qRT-PCR, viability ATP assay); format: cell-based; conditions: after transduction with constitutive pLKO shRNA plasmid
Experimental: The concentration of the compounds needed to observe a rescued DBA phenotype in TF1 RPS19 KD cells was determined via qRT-PCR analysis of p53 levels. […] Nine different cell lines were used. […] Cells were collected in separate tubes in a concentration of 1000 cells/μL to reach a concentration of 50,000 cells/50 μL per well. Cell were centrifuged at 1,200 rpm for 5 minutes. Then, the media was aspirated and cells were resuspended in RPMI+GCMSF medium.
For the preparation of Dose 1 (final concentration on plate 25 μM), a 50 μM solution was made by adding 300 μL of […] to 300 μL of RPM1+GCMSF+2% DMSO (final 1% DMSO). The 50 μM solution was further diluted to 2× when added with the cells into a well, resulting in a final concentration of 25 μM. […] DMSO 1% was used for each cell type as DMSO control.
A 96-well plate was used for analysis of each dose on each cell type. Fifty μL of each cell type and 50 μL of a diluted compound are added to the corresponding wells for a total of 100 μL RPMI+GCMSF+1% DMSO, with 50,000 cells/well. The following day, 50 μL for RNA (25,000 cells) and 50 μL for viability ATP assay (25,000 cells) were collected from each well.
Dose titration was performed as described in Example 1. […] Phenotype rescue was determined by measuring p53 levels by qRT-PCR analysis. […]

[10] = relative quantification of HBB expression vs control shNT, pLKO constitutive shRNA, GAPDH internal control, Table 78
[11] = relative quantification of HBB expression vs control sh_NT, pLKO shRNA, B-ACTIN, Table 79
[12] = pLKO constitutive shRNA, GAPDH internal control, Table 78
[13] = relative quantification of RPS19 expression vs control shNT, pLKO constitutive shRNA, GAPDH internal control, Table 78
[14] = relative quantification of RPS19 expression vs control sh_NT, pLKO shRNA, B-ACTIN, Table 79

O=C1Nc2cc(Br)ccc2/C1=C1/Nc2ccccc2/C1=N\O [BIO inhibitor]
expression of the COL1A1 gene (RNA-seq) [1]: modulation

Cn1cncc1[C@@](N)(c1ccc(Cl)cc1)c1ccc2c(c1)c(-c1cccc(Cl)c1)cc(=O)n2C [Tipifarnib]
# of genes having significantly altered expression [2]: 34

C[C@]12C=CC(=O)C=C1CC[C@@H]1[C@@H]2C(=O)C[C@@]2(C)[C@H]1CC[C@]2(O)C(=O)CO [prednisone]
expression of the SLC37A4 gene (RNA-seq) [3]: upregulation
expression of the PCSK9 gene (RNA-seq) [4]: modulation
significant modulation of gene expression ([5]; RNA-seq, p-value≤0.05, primary human hepatocytes, the modulated genes are listed in the block): significantly (p-value≤0.05) modulate
gene upregulated by the compound ([5]; RNA-seq, treated cells compared to vehicle control, gene named in the value): upregulate the SLC37A4 gene; also recorded: SLC37A4 was significantly upregulated; also recorded: upregulate FKPP5
Number (#) of genes having significantly changed expression ([5]; pilot RNA-seq study of Example 2, significance: FPKM≥0.5, log 2(fold change)≥1, q-value ≤0.05): 247
expression of FKBP5 (RNA-seq) [6]: upregulates

RPS19_sh1 (CTACGATGAGAACTGGTTCT; expressed or natural sequence; listed as Homo sapiens)
RQ, ALAS2 ([7]; pLKO shRNA, B-ACTIN, Table 79): 0.02
RQ, BCLXL ([7]; pLKO shRNA, B-ACTIN, Table 79): 0.34
RQ, HBB [7, 10]: 0.04
RQ, HBB [7, 11]: 0.00
RQ, MYC ([7]; pLKO shRNA, B-ACTIN, Table 79): 0.52
RQ, P53 [7, 12]: 1.34
RQ, RPL11 [7, 12]: 0.74
RQ, RPS19 [7, 13]: 0.59
RQ, RPS19 [7, 14]: 0.47
RQ, p21 ([7]; pLKO shRNA, B-ACTIN, Table 79): 0.53
RQ, p53 ([7]; pLKO shRNA, B-ACTIN, Table 79): 0.65
RQ of HBB [8]: 2.28
RQ of RPL11 [8]: 1.52
RQ of p21 [8]: 1.35

RPS19_sh4: shRNA targeting RPS19 in the constitutive pLKO plasmid, SEQ ID NO 32575 (GCTTGCTCCCTACGATGAGAA; listed as Homo sapiens)
increase in expression of p21 [7]: 12.8 fold
RQ, ALAS2 ([7]; pLKO shRNA, B-ACTIN, Table 79): 0.16
RQ, BCLXL ([7]; pLKO shRNA, B-ACTIN, Table 79): 0.87
RQ, HBB [7, 10]: 0.42
RQ, HBB [7, 11]: 0.03
RQ, MYC ([7]; pLKO shRNA, B-ACTIN, Table 79): 1.03
RQ, P53 [7, 12]: 1.24
RQ, RPL11 [7, 12]: 1.02
RQ, RPS19 [7, 13]: 1.54
RQ, RPS19 [7, 14]: 0.43
RQ, p21 ([7]; pLKO shRNA, B-ACTIN, Table 79): 12.78
RQ, p53 ([7]; pLKO shRNA, B-ACTIN, Table 79): 1.74
Cell density [9]: 124,000 cells/mll

RPS19_sh5: shRNA targeting RPS19 in the constitutive pLKO plasmid, SEQ ID NO 32576 (CGGCGTCATGCCCAGCCACTT; listed as Homo sapiens)
increase in expression of p21 [7]: 5.8 fold
RQ, ALAS2 ([7]; pLKO shRNA, B-ACTIN, Table 79): 1.51
RQ, BCLXL ([7]; pLKO shRNA, B-ACTIN, Table 79): 0.99
RQ, HBB [7, 10]: 0.75
RQ, HBB [7, 11]: 0.15
RQ, MYC ([7]; pLKO shRNA, B-ACTIN, Table 79): 1.43
RQ, P53 [7, 12]: 1.41
RQ, RPL11 [7, 12]: 1.09
RQ, RPS19 [7, 13]: 0.65
RQ, RPS19 [7, 14]: 0.15
RQ, p21 ([7]; pLKO shRNA, B-ACTIN, Table 79): 5.75
RQ, p53 ([7]; pLKO shRNA, B-ACTIN, Table 79): 0.74
Cell density [9]: 962,000 cells/mll
